According to publication PMC9732672, “Pyrazolyl-s-triazine with indole motif as a novel of epidermal growth factor receptor/cyclin-dependent kinase 2 dual inhibitors” (Frontiers in Chemistry, 2022):

Experiments:
[1] = system: A549 (non-small cell lung cancer) cells; experiment: MTT cytotoxicity assay, A549; type: cell-based, human; conditions: Homo sapiens, A549, average ±SD of four independent experiments, read-out: IC50 ± STDEV, A549
Protocol: (§1) The parental MCF7 (breast cancer cell line), A549 (non-small cell lung cancer cell line), and human dermal fibroblast (HDF) (human dermal cell line) cells were obtained from the American Type Culture Collection (ATCC, Manassas, VA, United States). MCF7 and A549 cells were cultured in RPMI 1640 medium (EuroClone, Italy) supplemented with 10% (v/v) heat-inactivated fetal bovine serum (FBS) (EuroClone, Italy), 1% penicillin-streptomycin (EuroClone, Italy), and 2 mM L-glutamine.
(§2) The cytotoxic activity of the tested compounds were tested using MTT assay. […] Then, the cell viability was recored and IC50 values were calcualted. ([Mosmann, 1983]; [Nafie et al., 2020c]).

A549 cells = experiment: Flow cytometry, Annexin V/PI staining; type: cell-based, human; conditions: A549, IC50 value, 48 h
Protocol: A549 cells were seeded into 6-well culture plates (3-5× 10^5 cells/well) and incubated overnight. […] Next, media supernatants and cells were collected and rinsed with ice-cold PBS. The cells were then suspended in the flow cytometry solutions and cells were stained with Annexin V/PI, and data was acquired using a Cytoflex FACS machine. Data were analyzed using cytExpert software. ([Hisham et al., 2019]; [Khodair et al., 2019]; [Nafie et al., 2020b]).

[2] = system: apoptosis-related genes in A549 cells; experiment: Gene expression analysis by RT-PCR; type: cell-based, human; conditions: A549 treated at IC50; normalized to β-actin; 2^-ΔΔCT
CDK-2 = CDK-2 (Homo sapiens, UniProt P24941); experiment: CDK-2 enzyme inhibition; type: biochemical
[3] = system: MCF-7 (breast cancer) cells; experiment: MTT cytotoxicity assay, MCF-7; type: cell-based, human; conditions: Homo sapiens, MCF7, average ±SD of four independent experiments, read-out: IC50 ± STDEV, MCF-7
Protocol: as §1, §2

EGFR = biological target: T1, EGFR (Homo sapiens, UniProt P00533); experiment: EGFR-TK kinase assay (ADP-Glo); type: biochemical
T1 construct: purchased Promega V9261
Protocol: EGFR-TK assay kit (ADP-Glo™ kinase assay, Cat No. V9261, Promega, United States) kinase assay was performed to evaluate the capacity of 3h, 3i, and 3j to inhibit EGFR.

[4] = system: HDFs (non-cancerous human dermal fibroblasts); experiment: MTT cytotoxicity assay, HDFs; type: cell-based; conditions: Homo sapiens, Fibroblast, non-cancerous cells, average ±SD of four independent experiments, read-out: IC50 ± STDEV, HDFs
Protocol: as §1, §2

5-HT7R = biological target: 5-HT7R; design: method as in Kułaga et al., 2020; conditions: ref Kułaga et al., 2020; read-out: Ki, 5-HT7 receptors; cited from earlier work
CDK1 = system: CDK1; design: method as in Kumar et al., 2019; conditions: Figure 1; ref Kumar et al., 2019; read-out: CDK-inhibitor IC50, CDK1; cited from earlier work
CDK2-A = system: CDK2-A; design: method as in Kumar et al., 2019; conditions: Figure 1; ref Kumar et al., 2019; read-out: CDK-inhibitor IC50, CDK2-A; cited from earlier work
CDK6 = system: CDK6; design: method as in Kumar et al., 2019; conditions: Figure 1; ref Kumar et al., 2019; read-out: CDK-inhibitor IC50, CDK6; cited from earlier work
CDK4 = system: CDK4; design: method as in Kumar et al., 2019; conditions: Figure 1; ref Kumar et al., 2019; read-out: CDK-inhibitor IC50, CDK4; cited from earlier work

T1 sequence (P00533 25-1210): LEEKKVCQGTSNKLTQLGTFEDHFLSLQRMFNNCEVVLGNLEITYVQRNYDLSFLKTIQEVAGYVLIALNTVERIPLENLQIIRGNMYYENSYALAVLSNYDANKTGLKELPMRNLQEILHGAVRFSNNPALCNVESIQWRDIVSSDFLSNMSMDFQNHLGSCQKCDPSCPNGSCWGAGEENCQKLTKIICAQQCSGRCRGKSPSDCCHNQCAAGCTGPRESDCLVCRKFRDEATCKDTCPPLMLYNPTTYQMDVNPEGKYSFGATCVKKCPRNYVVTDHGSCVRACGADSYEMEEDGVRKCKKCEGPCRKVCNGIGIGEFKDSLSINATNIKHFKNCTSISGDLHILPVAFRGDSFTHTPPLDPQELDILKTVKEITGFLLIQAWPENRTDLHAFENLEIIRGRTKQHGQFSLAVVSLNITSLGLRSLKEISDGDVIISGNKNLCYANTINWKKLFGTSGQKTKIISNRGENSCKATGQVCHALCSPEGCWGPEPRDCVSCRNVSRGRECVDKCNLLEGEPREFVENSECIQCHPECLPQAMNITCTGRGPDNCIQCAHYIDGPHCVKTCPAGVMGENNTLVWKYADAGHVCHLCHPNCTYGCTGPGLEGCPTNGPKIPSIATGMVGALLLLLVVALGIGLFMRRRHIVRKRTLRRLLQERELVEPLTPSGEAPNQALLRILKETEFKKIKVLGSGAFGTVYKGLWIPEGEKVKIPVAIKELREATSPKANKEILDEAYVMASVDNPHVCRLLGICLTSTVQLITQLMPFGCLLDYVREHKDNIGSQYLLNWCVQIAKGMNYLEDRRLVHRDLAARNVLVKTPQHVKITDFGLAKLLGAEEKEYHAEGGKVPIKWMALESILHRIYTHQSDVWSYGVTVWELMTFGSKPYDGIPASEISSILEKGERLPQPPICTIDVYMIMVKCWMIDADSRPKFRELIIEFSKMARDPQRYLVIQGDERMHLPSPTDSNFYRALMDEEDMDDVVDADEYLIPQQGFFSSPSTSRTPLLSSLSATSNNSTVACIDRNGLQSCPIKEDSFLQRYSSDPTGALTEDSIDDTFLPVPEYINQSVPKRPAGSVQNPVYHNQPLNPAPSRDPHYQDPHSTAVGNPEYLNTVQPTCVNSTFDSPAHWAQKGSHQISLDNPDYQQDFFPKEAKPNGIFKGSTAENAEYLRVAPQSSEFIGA

## Nc1cc(-c2c[nH]c3ccccc23)nn1-c1nc(Nc2ccc(Cl)cc2)nc(N2CCOCC2)n1 [Compound 3i, 4-(5-Amino-3-(1H-indol-3-yl)-1H-pyrazol-1-yl)-N-(4-chlorophenyl)-6-morpholino-1,3,5-triazin-2-amine]
[1]
  IC50: 2400 ± 640 nM
A549 cells; control 0.16%
  cells undergoing late apoptosis: 19.5%
A549 cells; control 0.42%
  cells undergoing early apoptosis: 24.2%
A549 cells; control 0.61%
  total apoptosis: 43.7%
  total apoptotic cell death, fold vs control: 71.6 fold
A549 cells; control 0.97%
  necrosis-mediated cell death: 4.08%
  necrosis-mediated cell death, fold increase: 4.2 fold
[2]
  Bax gene expression, fold of change: 3.56 fold
  Bcl-2 gene expression, fold change: 0.23 fold
  P53 gene expression, fold of change: 4.55 fold
  caspase 3 gene expression, fold of change: 6.96 fold
  caspase 8 gene expression, fold of change: 1.49 fold
  caspase 9 gene expression, fold of change: 7 fold
CDK-2; Mean ± SD of three independent replicates
  IC50: 108 ± 3.12 nM
CDK-2; at 10 µM
  inhibition at 10 µM: 91.4%
[3]
  IC50: 3280 ± 160 nM
EGFR; Mean ± SD of three independent replicates, read-out: EGFR inhibition IC50
  IC50: 34.1 ± 1.58 nM
EGFR; at 10 µM
  inhibition at 10 µM: 93.6%
[4]
  IC50: 3780 ± 550 nM

## Nc1nc(NCCOc2ccccc2)nc(NCCc2c[nH]c3ccccc23)n1 [XIV]
5-HT7R
  Ki: < 60 nM

## OCCCNc1cncc(-c2ncnc(Nc3cccc(Cl)c3)n2)c1 [XVII]
CDK1
  IC50: 60 nM

## OCCCNc1cc(-c2ncnc(Nc3cccc(Cl)c3)n2)ccn1 [XVI]
CDK2-A
  IC50: 7 nM
CDK6
  IC50: 356 nM
CDK4
  IC50: 308 nM
CDK1
  IC50: 21 nM

## COc1nc(NCCc2c[nH]c3ccccc23)nc(Nc2ccc3[nH]ncc3c2)n1 [XV]
5-HT7R
  Ki: < 60 nM
